Results on one compound are retold here after paper PMC4893612 (Scientific Reports, 2016).

Series [1] concerns the target T1, USP5 (Homo sapiens, UniProt P45974).
T1 sequence (P45974 1-858): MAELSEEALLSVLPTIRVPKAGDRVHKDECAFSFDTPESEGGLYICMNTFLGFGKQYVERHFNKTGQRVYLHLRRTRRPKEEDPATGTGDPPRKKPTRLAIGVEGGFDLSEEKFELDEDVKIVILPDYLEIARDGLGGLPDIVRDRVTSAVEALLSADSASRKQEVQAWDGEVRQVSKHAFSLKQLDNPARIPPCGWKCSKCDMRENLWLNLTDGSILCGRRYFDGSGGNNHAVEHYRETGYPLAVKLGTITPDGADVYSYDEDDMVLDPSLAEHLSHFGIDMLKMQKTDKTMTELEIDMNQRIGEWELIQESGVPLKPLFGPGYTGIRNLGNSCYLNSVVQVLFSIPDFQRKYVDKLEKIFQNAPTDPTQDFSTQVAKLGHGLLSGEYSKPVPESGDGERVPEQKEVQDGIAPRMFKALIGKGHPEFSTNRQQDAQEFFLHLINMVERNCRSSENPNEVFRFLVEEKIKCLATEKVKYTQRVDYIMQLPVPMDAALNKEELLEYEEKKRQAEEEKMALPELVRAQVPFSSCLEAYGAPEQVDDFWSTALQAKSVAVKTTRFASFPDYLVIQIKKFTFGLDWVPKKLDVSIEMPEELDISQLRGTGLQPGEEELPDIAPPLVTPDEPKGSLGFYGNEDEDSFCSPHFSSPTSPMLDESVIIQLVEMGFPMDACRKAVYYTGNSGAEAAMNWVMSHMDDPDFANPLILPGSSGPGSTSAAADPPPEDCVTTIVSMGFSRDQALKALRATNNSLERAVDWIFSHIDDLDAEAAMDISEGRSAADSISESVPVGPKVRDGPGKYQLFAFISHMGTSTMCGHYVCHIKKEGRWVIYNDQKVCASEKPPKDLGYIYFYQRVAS
The experiment in a line: SPR binding to USP5. The settings on record: data not shown.

Series [2] deals with T2, UCHL5 (Homo sapiens, UniProt Q9Y5K5).
T2 construct: purchased Boston Biochem E-366
Briefly: HA-Ub-VS active-site labeling of purified 19S, UCHL5. Format: biochemical. The settings on record: purified 19S RP; compared with USP14. How it is done:
(§1) Cell extract proteins were resolved by Tris-Acetate PAGE gels (Invitrogen, Carlsbad, CA) and transferred onto a polyvinylidene difluoride (PVDF) membrane for western blotting. For Ub-VS labeling, we lysed cell pellets from control or treated cells with buffer (50 mM HEPES pH 7.4, 250 mM sucrose, 10 mM MgCl2, 2 mM ATP, 1 mM DTT and 1%NP-40) on ice for 30 min and removed debris by centrifugation. We labeled 25 μg of protein with 1 μM Ub-VS for 30 min at 37 °C. We resolved samples by SDS-PAGE and performed immunoblotting. For HA-Ub-VS labeling, we pretreated purified 19S (5 nM) with DMSO or 2.5, 5, 10, 15 or 25μM 1570 for 10 min at room temperature, which followed with labeling with 1 μM HA-Ub-VS for 30 min at 37 °C and immunoblotting.

In series [3] the test system is RPMI8226 tumors. The experiment in a line: Subcutaneous RPMI8226 multiple myeloma model in mice. Format: in vivo. How it is done: Tissue sections were deparaffinized with xylene, rehydrated and microwaved and then incubated with primary antibodies diluted in 1% (wt/vol) BSA and visualized by standard avidin–biotin–peroxidase complex technique (Vector Laboratories, Burlingame, CA, USA). Counterstaining was performed with Mayer’s haematoxylin. Slides were mounted in Vectashield containing DAPI and images recorded in a Zeiss Axioplan 2 fluorescence microscope. Antibodies: KI67 Dako #M7240 (1:100)(using Rodent Block (Biocare-RBM961) and Envision Plus anti-mouse labeled polymer (Dako K4001); Ub-K48 (Millipore-05-1307) (1:100) (serum free Protein block (Dako-X0909)) and Envision + anti-rabbit labeled polymer (Dako-K4003); CXCR4 (Sigma-C3116) (1:400) (Dako-X0909) and Envision + anti-rabbit labeled polymer (Dako-K4003); cleaved casapse-3 (Cell Signaling-9664) (1:100) (Dako-X0909) and Envision + anti-rabbit labeled polymer (Dako-K4003).
Two different multiple myeloma models were used. Experimental protocols and methods were performed by Accelera (Nerviano, Italy) in accordance with guidelines and with permission from the local ethics committee (Nerviano Medical Sciences (NMS) Ethic Committee). All experimental protocols were approved by the Nerviano Medical Sciences (NMS) Ethic Committee. Study director was Marina Ciomei. SCID female mice were obtained from Charles River, Italy. Body weights at the day of tumor implant were between 19 and 22 grams. Treatment started at day 7 after injection of tumor cells and continued for 10 consequtive days. Mice were monitored daily for mortality and clinical signs. In the KMS-11 model, antitumor efficacy was evaluated in terms of survival increase respect to control. In the RPMI8226 model, the growth of subcutaneous tumors was recorded. For imaging, mice were injected intraperitoneally with 150 mg/kg d-luciferin (Promega) followed by anesthetization in 2–3% isoflurane atmosphere. After 10–12 minutes of biodistribution time, mice were imaged using a charge coupled device (CCD camera, Xenogen IVIS Lumina System) to evaluate the bioluminescence in the animal. Nose-cone isoflurane delivery system and heated stage for maintaining body temperature were used. A gray-scale image of the mice was captured, followed by an overlay of a bioluminescence map representing the spatial distribution of photons detected from cleaved luciferin in the cancer cells expressing luciferase. Signal intensity was quantified using a customized version of the IGOR Pro version 4.09A Software (WaveMetrics, Inc., Lake Oswego, OR) called Living Image version 3.00 (Xenogen). Photon emission was measured as whole-body radiance and the individual regions of interest (ROIs) were manually selected. Data were expressed as photon/second/cm^2/steradian.

The subject of series [4] is MM cells. The experiment in a line: Immunoblotting of polyubiquitinated proteins in MM cells. Format: cell-based, human. The following applies: 0.5 μM, 6 or 18 h. How it is done:
as §1

For series [5], the system named is proteasome DUB activity. Also on record: method as in PMID 25854145. The following applies: competitive inhibitor; read-out: IC50, inhibition of proteasome DUB activity in vitro; cited from earlier work.
Series [6] concerns non-proteasomal DUBs. Also on record: method as in PMID 25854145. The settings on record: cited from earlier work.
On the set-up of series [7]: method as in PMID 25854145. The following applies: cited from earlier work.

For `C=CC(=O)N1CC/C(=C\c2ccc(F)c([N+](=O)[O-])c2)C(=O)/C(=C/c2ccc(F)c([N+](=O)[O-])c2)C1` [VLX1570], the “saturable binding to USP5” value in series [1] is “No saturable binding”. In series [2], the “inhibition of UCHL5 (Ub-VS labeling)” value is on record as “required higher drug concentrations”. Moreover, the tumor growth entry in series [3] (3 mg/kg, 10 consecutive days, subcutaneous RPMI8226) was “significant decrease in tumor growth”. Further, in series [3] (RPMI8226 tumors, 3 mg/kg), the “CXCR4 staining in tumors (immunohistochemistry)” value was “decreased CXCR4 staining”, the “K48-linked ubiquitin chains in tumors” value is reported as “increases in K48-linked ubiquitin chains” and the “active caspase-3 in tumors” value was “increased active caspase-3”. For the same compound, the “ERK phosphorylation in RPMI8226 cells in vivo” value in series [3] (after exposure of mice) is recorded as “decreased ERK phosphorylation”. The “accumulation of polyubiquitinated proteins” value in series [4] was “polyubiquitinated proteins accumulated”. Besides, the IC50 in series [5] is about 10 µM. Further, the “inhibition of a panel of non-proteasomal DUBs” value in series [6] is on record as “not inhibiting”. For the same compound, the “solubility compared to b-AP15” value in series [7] is given as “improved solubility”.
